Data set [1] deals with Clostridioides difficile. The data set can be described thus: Antibacterial activity against Clostridium difficile ATTC43255 assessed as spore germination inhibition at 45 uM incubated for 60 mins by spectrometry relative to control. The class given is functional. Conditions: ATTC43255, 1 h.
Data set [2] relates to Clostridioides difficile. As to the kind of experiment: Antibacterial activity against Clostridium difficile ATTC43255 incubated for 24 to 48 hrs anaerobically by colony counting method. The class given is functional. Conditions: time 24-48 hrs.
The nature of data set [3]: Selectivity index, ratio of LD50 for cytotoxicity against human HepG2 cells to IC50 for antibacterial activity against Clostridium difficile ATTC43255 assessed as spore germination inhibition. The class given is toxicity, cell-based. Conditions: read-out: Ratio LD50/IC50.
A short description of data set [4]: Cytotoxicity against human HepG2 cells incubated for 24 hrs by XTT assay. Type of data set: toxicity, cell-based. The conditions noted are these: read-out: LD50. Background: Tetrazolium assays rely on reduction of a dye to a coloured formazan, in cell work by metabolically active cells.
The test system of data set [5] is Clostridioides difficile. As to the kind of experiment: Antibacterial activity against Clostridium difficile ATTC43255 assessed as spore germination inhibition incubated for 60 mins by spectrometry. Type of data set: functional, organism-based. The conditions noted are these: ATTC43255, 1 h.

This note sets out measurements from ChEMBL document CHEMBL6134901 (J Med Chem, 2025).

For the compound `CS(=O)(=O)Nc1ccc(-c2nc(-c3ccc(OC4CCCC4)cc3)no2)cc1`, the inhibition – broadly, the share of the control response that was lost under treatment – at 45 µM in the data set on Clostridioides difficile [1] is under 10%.
On the same count and under the same terms, with `Clc1c[nH]nc1-c1nc(-c2ccc(OC3CCCC3)cc2)no1` the figure was under 10%; with `Oc1ccc(-c2nc(-c3ccc(Oc4ccc(C(F)(F)F)cc4)cc3)no2)cc1`, 14%; with `Nc1c[nH]nc1-c1nc(-c2ccc(Oc3ccc(C(F)(F)F)cc3)cc2)no1`, under 10%.
Regarding `Cl.NCc1ccc(-c2nc(-c3ccc(Oc4ccc(F)cc4)cc3)no2)cc1`, the lowest concentration to inhibit growth with Clostridioides difficile [2] (MIC) was 16 µg/mL. Also, the selectivity ratio in data set [3] amounted to 2. Also, the inhibition at 45 µM in the data set on Clostridioides difficile [1] came out at 60%. In data set [4], the CC50 at 24 h was determined as 38 µg/mL. For the same compound, the IC50 (commonly the concentration that gives 50% inhibition) with Clostridioides difficile [5] is 45 µM.
With `O=[N+]([O-])c1cc(Oc2ccc(C(F)(F)F)cc2)cnc1-c1noc(-c2ccc(O)cc2)n1`, the inhibition at 45 µM in the data set on Clostridioides difficile [1] is under 10%.
The same measure, in the same setting: with `CCCOc1ccc(-c2noc(-c3ccc(O)cc3)n2)cc1` the figure was under 10%; with `N#Cc1ccc(-c2nc(-c3ccc(Oc4ccc(F)cc4)cc3)no2)cc1`, under 10%.
Regarding `COc1ccc(-c2noc(-c3ccc(CN)cc3)n2)cc1`, the inhibition at 45 µM with Clostridioides difficile [1] is under 10%.
Same read-out and setting: with `Nc1ccc(-c2noc(-c3ccc(O)cc3)n2)cc1` the figure was under 10%.
On the same count and under the same terms, with `O=C(O)c1cccc(-c2noc(-c3ccccc3F)n2)c1` the figure was under 10%; with `NCCCOc1ccc(-c2noc(-c3ccc(O)cc3)n2)cc1`, under 10%; with `Oc1ccc(-c2nc(-c3ccc(N4CCOCC4)cc3)no2)cc1`, under 10%.
Still for that read-out and setting: with `Oc1ccc(-c2nc(-c3ccc(OC(F)(F)F)cc3)no2)cc1` the figure was under 10%; with `NCCCCc1nc(-c2ccc(OC3CCCC3)cc2)no1`, under 10%.
As to `FC(F)(F)c1ccc(Oc2ccc(-c3noc(-c4n[nH]cc4NC4CCCCC4)n3)cc2)cc1`, in the data set with Clostridioides difficile [1], the inhibition at 45 µM is under 10%.
Same read-out and setting: with `C[C@@H](N)c1nc(-c2ccc(OC3CCCC3)cc2)no1` the figure was under 10%.
